Values after ≈ are worked out from the molar mass of the structure shown. Counter-ions that a name gives are not always drawn.
How the values were obtained:
B-16 melanoma cells = experiment: In vitro tissue culture test of tumor cell growth inhibition; format: cell-based; settings: Mus musculus, B16, Eagle's medium with 10 % calf blood plasma, 37 °C, compound added after 24 hours, three further days
Procedure: (§1) An in vitro test by tissue culture was undertaken for the activity of 2-(2-aminoethylthio)ethyl trimethyl silane against the growth of three kinds of tumor cells. The tumor cells used in the test were Ehrlich's cancer cells, Lewis lung cancer cells and B-16 melanoma cells and each kind of the above tumor cells was cultured in several Eagle's nutrient media admixed with 10 % of calf blood plasma at 37 °C.
(§2) After 24 hours from the start of the culture, 2-(2-amino- ethylthio)ethyl trimethyl silane was added to each of the nutrient media in a different concentration and, after additional three days at the same temperature, the conentration IC50 was determined with which the multiplication of the tumor cells was inhibited in 50 % of the tested groups. The results were as shown below

Ehrlich's cancer cells = experiment: as above; format: cell-based; settings: Eagle's medium with 10 % calf blood plasma, 37 °C, compound added after 24 hours, three further days
Procedure: as §1, §2

Lewis lung cancer cells = experiment: as above; format: cell-based; settings: Lewis lung carcinoma, Eagle's medium with 10 % calf blood plasma, 37 °C, compound added after 24 hours, three further days
Procedure: as §1, §2

[1] = tested on: B-16 melanoma cells implanted in mice; experiment: Animal test of growth inhibition of implanted B-16 melanoma in mice; format: in vivo; settings: tumor weight vs control at day 14; for inhibition in vivo at 100 mg: Mus musculus, B16, read-out: Tumor inhibiting efficiency, female BDF1-JCR mice, 1 x 10^5 B-16 cells subcutaneously; for Tumor inhibiting efficiency: female BDF1-JCR mice
Procedure: Animal tests were conducted to examine the activity of several compounds including 2-(2-aminoethylthio)ethyl trimethyl silane in the inhibiting power against the growth of the B-16 melanoma cells implanted in mice as the test animals.
Thus each of 12 female mice of the BDF1-JCR lineage was implanted subcutaneously with 1 x 10^5 cells of the B-16 black tumor.
Six of the thus treated mice were bred as such as a control group and the other six mice as the test group were orally administrated once a day with 100 mg of the test compound for 5 days beginning with the second day of the implantation.
The results of the tests were expressed by the tumor inhibiting efficiency in % calculated by the following equation, in which W^1 is the averaged tumor weight per mouse in the control group and W^2 is the averaged tumor weight per mouse in the test group. [formula]
For comparison, similar animal tests were undertaken with FT-207 as a derivative of 5-fluorouracil with the dose amount at one time increased to 130 mg.

[2] = oral, 100 mg once a day for 5 days from second day
[3] = 1 x 10^5 B-16 cells subcutaneously, oral, 100 mg once a day for 5 days from second day

Row | Structure (SMILES) | inhibition in vivo at 100 mg [1, 2] | further results
1 | C[Si](C)(C)CCSCCN [Me3Si-(-CH2-)2-S-(-CH2-)2-NH2, 2-(2-aminoethylthio)ethyl trimethyl silane] | 95.6% | IC50 (B-16 melanoma cells): 18 µg/mL (≈ 101 µM); IC50 (Ehrlich's cancer cells): 12 µg/mL (≈ 67.6 µM); IC50 (Lewis lung cancer cells): 14 µg/mL (≈ 78.9 µM)
2 | C[Si](C)(C)CCSCCN [Me3Si-(-CH2-)2-S-(-CH2-)2-NH2·CH3COOH] |  | Tumor inhibiting efficiency [1, 3]: 95.0%
3 | C=C[Si](C)(C)CCSCCN [Vi·Me2Si-(-CH2-)2-S-(-CH2-)2-NH2, 2-(2-aminoethylthio) ethyl vinyl dimethyl silane] | 95.7% | 
4 | CCN(CC)CSCC[Si](CC)(CC)CC [Et3Si-(-CH2)2-S-CH2-NEt2] | 90.5% | 
5 | CCN(CC)CSC[Si](CC)(CC)CC [Et3Si-CH2-S-CH2-NEt2] | 81.7% | 
6 | CCN(CC)CSC[Si](C)(CC)CC [Me·Et2Si-CH2-S-CH2-NEt2] | 86.5% | 
7 | C[Si](C)(CCSCCN)CCC(F)(F)F [(CF3CH2CH2)Me2Si-(CH2-)2-S-(-CH2-)2-NH2, 2-(2-aminoethylthio)-ethyl 3,3,3-trifluoropropyl dimethyl silane] | 96.8% | 
8 | C[Si](C)(CCSCCN)c1ccccc1 [Ph·Me2Si-(-CH2-)2-S-(-CH2-)2-NH2, 2-(2-aminoethylthio)ethyl phenyl dimethyl silane] | 82.6% | 
9 | C[Si](C)(C)CCCSCCN [Me3Si-(-CH2-)3-S-(-CH2-)2-NH2, 3-(2-aminoethylthio)propyl trimethyl silane] | 93.9% | 
10 | CCN(CC)CSCC[Si](C)(C)C [Me3Si-(-CH2-)2-S-CH2-NEt2] | 89.2% | 
11 | CC[Si](CC)(CC)CSCCN [Et3Si-CH2-S-(-CH2-)2-NH2, (2-aminoethylthio)methyl triethyl silane] | 91.1% | 
12 | CCN(CC)CCSCCC[Si](CC)(CC)CC [Et3Si-(-CH2-)3-S-(-CH2-)2-NEt2] | 76.7% | 
13 | CC[Si](CC)(CC)CCSCCN [Et3Si-(-CH2-)2-S-(-CH2-)2-NH2, 2-(2-aminoethylthio)ethyl triethyl silane] | 90.8% | 
14 | O=c1[nH]c(=O)n(C2CCCO2)cc1F (stereo not drawn) [FT-207, reference compound] |  | Tumor inhibiting efficiency ([1]; comparison, B-16 cells subcutaneously, dose at one time 130 mg): 20.5%
15 | C[Si](C)(C)CCSCCN [Me3Si-(-CH2-)2-S-(-CH2-)2-NH2·HCl, hydrochloride of 2-(2-aminoethylthio)ethyl trimethyl silane] |  | Tumor inhibiting efficiency [1, 3]: 97.9%
16 | CCN(CC)CSCCC[Si](C)(C)C [Me3Si-(-CH2-)3-S-CH2-NEt2] | 83.9% | 
17 | CCN(CC)CSCC[Si](C)(CC)CC [Me·Et2Si-(-CH2-)2-S-CH2-NEt2] | 86.9% | 
18 | CCN(CC)CSCCC[Si](CC)(CC)CC [Et3Si-(-CH2-)3-S-CH2-NEt2] | 84.4% | 

From patent EP0046242A1, “Anti-tumor agent comprising an organosilicon compound” (Shin-Etsu Chemical Co., Ltd., priority 1980, dated 1982)
